Starred links: 1 amine or outer side, 2 acyl side, 3 side chain; linkers in the order of their positions; H or OH if unused. Positions of bridges follow the written chain, without caps; N, C: chain ends. Non-standard residues stand in square brackets, D forms with d. Residues, ends and D or L forms follow the SMILES beside them. *: point of attachment. NMeF = CN[C@@H](Cc1ccccc1)C(=O)O; NMeGABA = CN(CCCC(=O)[*:2])[*:1]; NMeI = CC[C@H](C)[C@H](NC)C(=O)O; NMeT = CN[C@H](C(=O)O)[C@@H](C)O; hPhe = N[C@@H](CCc1ccccc1)C(=O)O; NMeβAla = CN(CCC(=O)[*:2])[*:1]; NMeL = CN[C@@H](CC(C)C)C(=O)O; dNMeV = CN[C@@H](C(=O)O)C(C)C; NMeV = CN[C@H](C(=O)O)C(C)C; NMeAbu = CC[C@H](NC)C(=O)O; NMeA = CN[C@@H](C)C(=O)O; Piperidide = C1CCN(*)CC1; Abu = CC[C@H](N)C(=O)O; NBuGly = CCCCNCC(=O)O; Sar = CNCC(=O)O; tBu = CC(C)(C)*
Assays:
[1] = Metabolic stability test: liver microsomal stability assay; format: in vitro ADME, mouse; conditions: mouse liver microsomes 0.5 mg protein/mL, compound 1 µM; for microsomal CLint at 1 µM: male, pH 7.4, presence of NADPH, read-out: Mouse Hepatic Microsome CLh,int NADPH(+); for Mouse Hepatic Microsome CLh,int NADPH(-): absence of NADPH
[2] = Membrane permeability test using Caco-2 cells with preincubation; format: in vitro ADME; conditions: Caco-2; preincubation 20 to 24 hours; Apical FaSSIF/HBSS pH 6.0, Basal HBSS 4% BSA pH 7.4; 180 minutes; read-out: Caco2 Papp
[3] = system: Caco-2 cells; assay: as above; format: in vitro ADME; conditions: Caco-2 cells, preincubation 20 to 24 hours; apical FaSSIF/HBSS 1% DMSO pH 6.0, basal HBSS 4% BSA pH 7.4; basal sample at 180 minutes

Row | Structure (SMILES) | microsomal CLint at 1 µM [1] | Mouse Hepatic Microsome CLh,int NADPH(-) [1] | Papp A→B [2] | Caco2 Papp (10^-6 cm/sec) [3]
1 | CC[C@H](C)[C@@H]1NC(=O)[C@H](CC(C)C)N(C)C(=O)C[C@@H](C(=O)N2CCCCC2)NC(=O)[C@H](Cc2ccccc2)N(C)C(=O)[C@H](C(C)C)NC(=O)[C@@H]2CCCN2C(=O)[C@H]([C@@H](C)CC)NC(=O)[C@H](CC)N(C)C(=O)[C@H](C(C)C)N(C)C(=O)[C@H](CC(C)C)NC(=O)[C@H](CC(C)C)N(C)C(=O)[C@H]([C@@H](C)O)NC(=O)[C@H](Cc2ccccc2)NC(=O)CN(C)C1=O [pd029] ([NMeL]I[Sar]FT[NMeL]L[NMeV][NMeAbu]IPV[NMeF]D-Piperidide; lactam N-14) | 38.2 µL/min/mg | 36.6 µL/min/mg Protein | 0.02 ×10⁻⁶ cm/s | 0.02 10^-6 cm/sec
2 | CC[C@@H]1NC(=O)[C@H](Cc2ccccc2)N(C)C(=O)[C@H](CC(C)C)NC(=O)CNC(=O)[C@H]([C@@H](C)O)N(C)C(=O)[C@H](CC(C)C)N(C)C(=O)[C@H]([C@@H](C)CC)NC(=O)[C@H](Cc2ccccc2)N(C)C(=O)CN(C)C(=O)C[C@@H](C(=O)N2CCCCC2)NC(=O)[C@H](C(C)C)N(C)C(=O)[C@H](CC(C)C)NC(=O)[C@H](C(C)C)NC(=O)[C@H](C)N(C)C1=O [pd030] ([Sar][NMeF]I[NMeL][NMeT]GL[NMeF][Abu][NMeA]VL[NMeV]D-Piperidide; lactam N-14) | 33.7 µL/min/mg | 28.5 µL/min/mg Protein | 0.04 ×10⁻⁶ cm/s | 0.04 10^-6 cm/sec
3 | CC[C@@H]1NC(=O)[C@H](C(C)C)N(C)C(=O)[C@H](CC(C)C)NC(=O)[C@H](CC(C)C)N(C)C(=O)[C@H]([C@@H](C)O)NC(=O)CN(C)C(=O)[C@H]([C@@H](C)CC)NC(=O)[C@H](Cc2ccccc2)N(C)C(=O)[C@H](CC(C)C)N(C)C(=O)C[C@@H](C(=O)N2CCCCC2)NC(=O)[C@H](Cc2ccccc2)N(C)C(=O)[C@H](COC(C)(C)C)NC(=O)[C@@H]2CCCN2C(=O)[C@H]([C@@H](C)CC)NC1=O [pd031] ([NMeL][NMeF]I[Sar]T[NMeL]L[NMeV][Abu]IPS(tBu)[NMeF]D-Piperidide; lactam N-14) | 40.3 µL/min/mg | 32.3 µL/min/mg Protein | 0.04 ×10⁻⁶ cm/s | 0.04 10^-6 cm/sec
4 | CC(C)C[C@@H]1NC(=O)[C@H](CC(C)C)N(C)C(=O)[C@H](C(C)C)N(C)C(=O)[C@H](CCc2ccccc2)NC(=O)[C@H]([C@@H](C)O)N(C)C(=O)[C@@H](C(C)C)NC(=O)C[C@@H](C(=O)N2CCCCC2)NC(=O)[C@H](C(C)C)N(C)C(=O)[C@H](CC(C)C)NC(=O)[C@H](Cc2ccccc2)N(C)C(=O)[C@@H]2CCCN2C(=O)[C@H](C(C)C)NC(=O)[C@H](CC(C)C)N(C)C(=O)CN(C)C1=O [pd032] ([dV][NMeT][hPhe][NMeV][NMeL]L[Sar][NMeL]VP[NMeF]L[NMeV]D-Piperidide; lactam N-14) | 28.9 µL/min/mg | 28.7 µL/min/mg Protein | 0.72 ×10⁻⁶ cm/s | 0.72 10^-6 cm/sec
5 | CC[C@@H]1NC(=O)[C@H](C(C)C)N(C)C(=O)[C@H](CC(C)C)NC(=O)[C@H](Cc2ccccc2)N(C)C(=O)[C@@H](C(C)C)N(C)C(=O)C[C@@H](C(=O)N2CCCCC2)NC(=O)[C@H](CC(C)C)NC(=O)[C@H](C(C)C)N(C)C(=O)[C@H](Cc2ccccc2)N(C)C(=O)[C@H](CC(C)C)NC(=O)[C@H](CC(C)C)N(C)C(=O)[C@H](C)N(C)C(=O)[C@H]([C@@H](C)O)NC(=O)[C@H](CC(C)C)N(C)C1=O [pd033] ([dNMeV][NMeF]L[NMeV][Abu][NMeL]T[NMeA][NMeL]L[NMeF][NMeV]LD-Piperidide; lactam N-14) | 47.8 µL/min/mg | 34.1 µL/min/mg Protein | 0.03 ×10⁻⁶ cm/s | 0.03 10^-6 cm/sec
6 | CC[C@H](C)[C@@H]1NC(=O)[C@H](C)N(C)C(=O)[C@H]([C@@H](C)O)NC(=O)[C@H](Cc2ccccc2)N(C)C(=O)[C@H](COC(C)(C)C)NC(=O)[C@H](CC(C)C)N(C)C(=O)[C@H](C(C)C)NC(=O)CN(C)C(=O)[C@H](Cc2ccccc2)N(C)C(=O)[C@H]([C@@H](C)CC)NC(=O)[C@H](CC(C)C)N(C)C(=O)CCN(C)C(=O)C[C@@H](C(=O)N2CCCCC2)NC(=O)[C@H](CC(C)C)N(C)C1=O [pd034] ([NMeβAla][NMeL]I[NMeF][Sar]V[NMeL]S(tBu)[NMeF]T[NMeA]I[NMeL]D-Piperidide; lactam N-14) | 46.8 µL/min/mg | 36.0 µL/min/mg Protein | 0.27 ×10⁻⁶ cm/s | 0.27 10^-6 cm/sec
7 | CCCCN1CC(=O)N[C@@H](CC(C)C)C(=O)N(C)[C@@H]([C@@H](C)CC)C(=O)N[C@@H](CC)C(=O)N(C)[C@@H]([C@@H](C)O)C(=O)N(C)[C@@H](Cc2ccccc2)C(=O)N[C@@H]([C@@H](C)CC)C(=O)N(C)[C@@H](CC(C)C)C(=O)N[C@H](C(=O)N2CCCCC2)CC(=O)N(C)[C@@H](C)C(=O)N[C@@H](CC(C)C)C(=O)N(C)[C@@H](CC(C)C)C(=O)N(C)[C@@H](Cc2ccccc2)C(=O)N[C@@H](CC)C1=O [pd035] ([NMeA]L[NMeL][NMeF][Abu][NBuGly]L[NMeI][Abu][NMeT][NMeF]I[NMeL]D-Piperidide; lactam N-14) | 28.3 µL/min/mg | 27.5 µL/min/mg Protein | < 0.11 ×10⁻⁶ cm/s | <0.11 10^-6 cm/sec
8 | CC[C@H](C)[C@H]1C(=O)N[C@@H](CC(C)C)C(=O)N(C)[C@@H](CC(C)C)C(=O)N2CCC[C@H]2C(=O)N(C)[C@@H](C(C)C)C(=O)N[C@H](C(=O)N2CCCCC2)CC(=O)N[C@@H](C)C(=O)N(C)[C@@H](CC(C)C)C(=O)N[C@@H](C(C)C)C(=O)N(C)[C@@H](Cc2ccccc2)C(=O)N(C)[C@@H](CC(C)C)C(=O)N[C@@H](C)C(=O)N(C)[C@@H](Cc2ccccc2)C(=O)N[C@@H]([C@@H](C)O)C(=O)N1C [pd036] (A[NMeL]V[NMeF][NMeL]A[NMeF]T[NMeI]L[NMeL]P[NMeV]D-Piperidide; lactam N-14) | 35.4 µL/min/mg | 25.7 µL/min/mg Protein | 0.28 ×10⁻⁶ cm/s | 0.28 10^-6 cm/sec
9 | CC[C@H](C)[C@H]1C(=O)N[C@@H]([C@@H](C)O)C(=O)N(C)CC(=O)N(C)[C@@H](CC(C)C)C(=O)N[C@@H](CC(C)C)C(=O)N[C@H](C(=O)N2CCCCC2)CC(=O)N(C)[C@@H](C)C(=O)N[C@@H](CC(C)C)C(=O)N(C)[C@@H](CC(C)C)C(=O)N[C@@H](C(C)C)C(=O)N(C)CCC(=O)N(C)[C@@H](Cc2ccccc2)C(=O)N[C@@H](C)C(=O)N(C)[C@@H](Cc2ccccc2)C(=O)N1C [pd037] ([NMeA]L[NMeL]V[NMeβAla][NMeF]A[NMeF][NMeI]T[Sar][NMeL]LD-Piperidide; lactam N-14) | 18.3 µL/min/mg | 17.7 µL/min/mg Protein | 0.26 ×10⁻⁶ cm/s | 0.26 10^-6 cm/sec
10 | CC[C@@H]1NC(=O)[C@H]([C@@H](C)O)N(C)C(=O)CCN(C)C(=O)[C@H]([C@@H](C)CC)NC(=O)[C@H](Cc2ccccc2)N(C)C(=O)CN(C)C(=O)C[C@@H](C(=O)N2CCCCC2)NC(=O)[C@H]([C@@H](C)CC)N(C)C(=O)[C@H](COC(C)(C)C)NC(=O)[C@@H]2CCCN2C(=O)[C@H](CCc2ccccc2)NC(=O)[C@H](CC)N(C)C(=O)[C@H](C)NC(=O)[C@H](CC(C)C)N(C)C1=O [pd038] ([Sar][NMeF]I[NMeβAla][NMeT][Abu][NMeL]A[NMeAbu][hPhe]PS(tBu)[NMeI]D-Piperidide; lactam N-14) | 12 µL/min/mg | 18.1 µL/min/mg Protein | 0.04 ×10⁻⁶ cm/s | 0.04 10^-6 cm/sec
11 | CC[C@H](C)[C@@H]1NC(=O)[C@H](CC(C)C)N(C)C(=O)CN(C)C(=O)C[C@@H](C(=O)N2CCCCC2)NC(=O)[C@H](C)N(C)C(=O)CNC(=O)[C@H](C(C)C)N(C)C(=O)[C@H](C)N(C)C(=O)[C@H](Cc2ccccc2)N(C)C(=O)[C@H](C(C)C)NC(=O)[C@H](CC(C)C)NC(=O)[C@H](Cc2ccccc2)N(C)C(=O)[C@H]([C@@H](C)O)NC(=O)[C@H](CC(C)C)N(C)C1=O [pd039] ([Sar][NMeL]I[NMeL]T[NMeF]LV[NMeF][NMeA][NMeV]G[NMeA]D-Piperidide; lactam N-14) | 21.4 µL/min/mg | 15.6 µL/min/mg Protein | 0.03 ×10⁻⁶ cm/s | 0.03 10^-6 cm/sec
12 | CC(C)C[C@@H]1NC(=O)[C@H]([C@@H](C)O)N(C)C(=O)[C@@H](C(C)C)NC(=O)C[C@@H](C(=O)N2CCCCC2)NC(=O)[C@H](C(C)C)N(C)C(=O)[C@H](C)N(C)C(=O)[C@H](C(C)C)NC(=O)[C@H](Cc2ccccc2)N(C)C(=O)[C@@H]2CCCN2C(=O)[C@H](CC(C)C)N(C)C(=O)CN(C)C(=O)[C@H](CCc2ccccc2)NC(=O)[C@H](CC(C)C)N(C)C(=O)[C@H](C(C)C)N(C)C1=O [pd040] ([dV][NMeT]L[NMeV][NMeL][hPhe][Sar][NMeL]P[NMeF]V[NMeA][NMeV]D-Piperidide; lactam N-14) | 24.8 µL/min/mg | 22.3 µL/min/mg Protein | 0.17 ×10⁻⁶ cm/s | 0.17 10^-6 cm/sec
13 | CC[C@H](C)[C@@H]1NC(=O)[C@H](C)N(C)C(=O)[C@H]([C@@H](C)O)NC(=O)[C@H](CC(C)C)N(C)C(=O)[C@H](CC)N(C)C(=O)[C@H](Cc2ccccc2)N(C)C(=O)[C@H](C)NC(=O)[C@H](Cc2ccccc2)N(C)C(=O)[C@H](C)N(C)C(=O)[C@H](CC(C)C)N(C)C(=O)[C@H](CC(C)C)NC(=O)CCCN(C)C(=O)C[C@@H](C(=O)N2CCCCC2)NC(=O)[C@H](CC(C)C)N(C)C1=O [pd041] ([NMeGABA]L[NMeL][NMeA][NMeF]A[NMeF][NMeAbu][NMeL]T[NMeA]I[NMeL]D-Piperidide; lactam N-14) | 25.1 µL/min/mg | 23.5 µL/min/mg Protein | 0.13 ×10⁻⁶ cm/s | 0.13 10^-6 cm/sec
